Results reported in ChEMBL document CHEMBL3885861, “Open TG-GATES”.

Species on record: Rattus norvegicus
Assay: Open TG-GATES - Regimen: Single
Type: toxicity, organism-based, Sprague-Dawley
Design: regimen Single, gender Male, age 6 weeks
Settings: in vivo, po, 300 mg/kg, route gavage, dose level Middle; for APTT / Bas / Eos / Fbg / Hb / Ht / Lym / MCH / MCHC / MCV / Mono / Neu / PT / Plat / RBC / Ret / WBC: tissue Blood; for KIDNEY_L / KIDNEY_R / KIDNEY_TOTAL: tissue Kidney; for LIVER: tissue Liver; for A/G / ALP / ALT / AST / BUN / CRE / Ca / Cl / DBIL / GLC / IP / K / LDH / Na / PL / RALB / TBIL / TC / TG / TP / gamma-GTP: tissue Plasma

Q: How did the TERMINAL_BW (3 h) turn out when `CN/C(=N/CCSCc1nc[nH]c1C)NC#N` [CIMETIDINE] was run?
A: 213.9 g

Q: What about the APTT (3 h) of the same molecule?
A: 17.7 s

Q: What about the Bas (3 h) of the same molecule?
A: 0%

Q: And the Eos (3 h)?
A: 0.8%

Q: And the Fbg (3 h)?
A: 212 mg/dL

Q: What about the Hb (3 h) of the same molecule?
A: 12.6 g/dL

Q: And the Ht (3 h)?
A: 37.5%

Q: And the Lym (3 h)?
A: 77.6%

Q: And the MCH (3 h)?
A: 21.5 pg

Q: And the MCHC (3 h)?
A: 33.7%

Q: What about the MCV (3 h) of the same molecule?
A: 63.8 fL

Q: And the Mono (3 h)?
A: 3%

Q: And the Neu (3 h)?
A: 17.2%

Q: What about the PT (3 h) of the same molecule?
A: 12.8 s

Q: What about the Plat (3 h) of the same molecule?
A: 128.8 x10_4/uL

Q: What about the RBC (3 h) of the same molecule?
A: 587.2 x10_4/ul

Q: What about the Ret (3 h) of the same molecule?
A: 8.2%

Q: What about the WBC (3 h) of the same molecule?
A: 84.3 x10_2/uL

Q: What about the KIDNEY_L (3 h) of the same molecule?
A: 1 g

Q: What about the KIDNEY_R (3 h) of the same molecule?
A: 0.9 g

Q: And the KIDNEY_TOTAL (3 h)?
A: 1.9 g

Q: What about the LIVER (3 h) of the same molecule?
A: 10.5 g

Q: And the A/G (3 h)?
A: 1.6

Q: And the ALP (3 h)?
A: 1248.6 IU/L

Q: What about the ALT (3 h) of the same molecule?
A: 37.4 IU/L

Q: What about the AST (3 h) of the same molecule?
A: 68.6 IU/L

Q: What about the BUN (3 h) of the same molecule?
A: 10.8 mg/dL

Q: What about the CRE (3 h) of the same molecule?
A: 0.4 mg/dL

Q: And the Ca (3 h)?
A: 10.7 mg/dL

Q: And the Cl (3 h)?
A: 103.4 meq/L

Q: And the DBIL (3 h)?
A: 0.072 mg/dL

Q: What about the GLC (3 h) of the same molecule?
A: 191.2 mg/dL

Q: What about the IP (3 h) of the same molecule?
A: 8.8 mg/dL

Q: What about the K (3 h) of the same molecule?
A: 4.1 meq/L

Q: And the LDH (3 h)?
A: 155.6 IU/L

Q: And the Na (3 h)?
A: 140.8 meq/L

Q: What about the PL (3 h) of the same molecule?
A: 158 mg/dL

Q: What about the RALB (3 h) of the same molecule?
A: 3.3 g/dL

Q: What about the TBIL (3 h) of the same molecule?
A: 0.1 mg/dL

Q: What about the TC (3 h) of the same molecule?
A: 83 mg/dL

Q: What about the TG (3 h) of the same molecule?
A: 57 mg/dL

Q: What about the TP (3 h) of the same molecule?
A: 5.4 g/dL

Q: What about the gamma-GTP (3 h) of the same molecule?
A: 1.4 IU/L

Q: And the TERMINAL_BW (6 h)?
A: 209.1 g

Q: And the APTT (6 h)?
A: 19.5 s

Q: What about the Bas (6 h) of the same molecule?
A: 0%

Q: What about the Eos (6 h) of the same molecule?
A: 1%

Q: What about the Fbg (6 h) of the same molecule?
A: 224 mg/dL

Q: What about the Hb (6 h) of the same molecule?
A: 13 g/dL

Q: What about the Ht (6 h) of the same molecule?
A: 37.3%

Q: And the Lym (6 h)?
A: 72.4%

Q: And the MCH (6 h)?
A: 21.6 pg

Q: What about the MCHC (6 h) of the same molecule?
A: 34.8%

Q: And the MCV (6 h)?
A: 62.2 fL

Q: And the Mono (6 h)?
A: 3.4%

Q: And the Neu (6 h)?
A: 22.6%

Q: And the PT (6 h)?
A: 13.4 s

Q: And the Plat (6 h)?
A: 134.4 x10_4/uL

Q: And the RBC (6 h)?
A: 600.8 x10_4/ul

Q: And the Ret (6 h)?
A: 7.9%

Q: And the WBC (6 h)?
A: 100.3 x10_2/uL

Q: What about the KIDNEY_L (6 h) of the same molecule?
A: 1 g

Q: And the KIDNEY_R (6 h)?
A: 1 g

Q: And the KIDNEY_TOTAL (6 h)?
A: 1.9 g

Q: And the LIVER (6 h)?
A: 9.3 g

Q: And the A/G (6 h)?
A: 1.7

Q: And the ALP (6 h)?
A: 926.2 IU/L

Q: What about the ALT (6 h) of the same molecule?
A: 38.2 IU/L

Q: What about the AST (6 h) of the same molecule?
A: 68 IU/L

Q: And the BUN (6 h)?
A: 8.4 mg/dL

Q: And the CRE (6 h)?
A: 0.4 mg/dL

Q: And the Ca (6 h)?
A: 10.4 mg/dL

Q: And the Cl (6 h)?
A: 103.2 meq/L

Q: And the DBIL (6 h)?
A: 0.068 mg/dL

Q: What about the GLC (6 h) of the same molecule?
A: 185 mg/dL

Q: What about the IP (6 h) of the same molecule?
A: 9.6 mg/dL

Q: What about the K (6 h) of the same molecule?
A: 3.8 meq/L

Q: And the LDH (6 h)?
A: 148.6 IU/L

Q: What about the Na (6 h) of the same molecule?
A: 141 meq/L

Q: What about the PL (6 h) of the same molecule?
A: 138.2 mg/dL

Q: And the RALB (6 h)?
A: 3.4 g/dL

Q: What about the TBIL (6 h) of the same molecule?
A: 0.1 mg/dL

Q: And the TC (6 h)?
A: 70.2 mg/dL

Q: What about the TG (6 h) of the same molecule?
A: 60 mg/dL

Q: And the TP (6 h)?
A: 5.5 g/dL

Q: What about the gamma-GTP (6 h) of the same molecule?
A: 1.4 IU/L

Q: What about the TERMINAL_BW (9 h) of the same molecule?
A: 208.3 g

Q: What about the APTT (9 h) of the same molecule?
A: 20.6 s

Q: What about the Bas (9 h) of the same molecule?
A: 0%

Q: What about the Eos (9 h) of the same molecule?
A: 0.8%

Q: And the Fbg (9 h)?
A: 214.4 mg/dL

Q: What about the Hb (9 h) of the same molecule?
A: 12.6 g/dL

Q: And the Ht (9 h)?
A: 36.5%

Q: And the Lym (9 h)?
A: 80.2%

Q: What about the MCH (9 h) of the same molecule?
A: 21.6 pg

Q: And the MCHC (9 h)?
A: 34.5%

Q: And the MCV (9 h)?
A: 62.6 fL

Q: And the Mono (9 h)?
A: 2.6%

Q: And the Neu (9 h)?
A: 15.6%

Q: And the PT (9 h)?
A: 13.9 s

Q: What about the Plat (9 h) of the same molecule?
A: 126.2 x10_4/uL

Q: And the RBC (9 h)?
A: 583.4 x10_4/ul

Q: And the Ret (9 h)?
A: 7.8%

Q: What about the WBC (9 h) of the same molecule?
A: 70.7 x10_2/uL

Q: What about the KIDNEY_L (9 h) of the same molecule?
A: 1 g

Q: And the KIDNEY_R (9 h)?
A: 1 g

Q: And the KIDNEY_TOTAL (9 h)?
A: 1.9 g

Q: And the LIVER (9 h)?
A: 8.8 g

Q: And the A/G (9 h)?
A: 1.7

Q: What about the ALP (9 h) of the same molecule?
A: 807.2 IU/L

Q: And the ALT (9 h)?
A: 31 IU/L

Q: And the AST (9 h)?
A: 58.6 IU/L

Q: What about the BUN (9 h) of the same molecule?
A: 9.8 mg/dL

Q: And the CRE (9 h)?
A: 0.4 mg/dL

Q: What about the Ca (9 h) of the same molecule?
A: 10.3 mg/dL

Q: What about the Cl (9 h) of the same molecule?
A: 102 meq/L

Q: What about the DBIL (9 h) of the same molecule?
A: 0.068 mg/dL

Q: What about the GLC (9 h) of the same molecule?
A: 189.8 mg/dL

Q: What about the IP (9 h) of the same molecule?
A: 10.3 mg/dL

Q: And the K (9 h)?
A: 3.9 meq/L

Q: And the LDH (9 h)?
A: 115.6 IU/L

Q: What about the Na (9 h) of the same molecule?
A: 141 meq/L

Q: What about the PL (9 h) of the same molecule?
A: 136 mg/dL

Q: What about the RALB (9 h) of the same molecule?
A: 3.4 g/dL

Q: What about the TBIL (9 h) of the same molecule?
A: 0.1 mg/dL

Q: And the TC (9 h)?
A: 72.4 mg/dL

Q: And the TG (9 h)?
A: 36.4 mg/dL

Q: What about the TP (9 h) of the same molecule?
A: 5.5 g/dL

Q: What about the gamma-GTP (9 h) of the same molecule?
A: 1.6 IU/L

Q: And the TERMINAL_BW (24 h)?
A: 223.6 g

Q: And the APTT (24 h)?
A: 19.1 s

Q: What about the Bas (24 h) of the same molecule?
A: 0%

Q: And the Eos (24 h)?
A: 0.8%

Q: What about the Fbg (24 h) of the same molecule?
A: 214.8 mg/dL

Q: What about the Hb (24 h) of the same molecule?
A: 13.5 g/dL

Q: What about the Ht (24 h) of the same molecule?
A: 40.7%

Q: And the Lym (24 h)?
A: 82.2%

Q: And the MCH (24 h)?
A: 21.5 pg

Q: And the MCHC (24 h)?
A: 33.3%

Q: What about the MCV (24 h) of the same molecule?
A: 64.5 fL

Q: And the Mono (24 h)?
A: 2.2%

Q: What about the Neu (24 h) of the same molecule?
A: 13.6%

Q: What about the PT (24 h) of the same molecule?
A: 12.7 s

Q: What about the Plat (24 h) of the same molecule?
A: 126.7 x10_4/uL

Q: What about the RBC (24 h) of the same molecule?
A: 631.2 x10_4/ul

Q: What about the Ret (24 h) of the same molecule?
A: 6.5%

Q: And the WBC (24 h)?
A: 86.6 x10_2/uL

Q: And the KIDNEY_L (24 h)?
A: 1 g

Q: What about the KIDNEY_R (24 h) of the same molecule?
A: 1 g

Q: What about the KIDNEY_TOTAL (24 h) of the same molecule?
A: 2 g

Q: What about the LIVER (24 h) of the same molecule?
A: 10.7 g

Q: What about the A/G (24 h) of the same molecule?
A: 1.6

Q: What about the ALP (24 h) of the same molecule?
A: 1056 IU/L

Q: And the ALT (24 h)?
A: 35.8 IU/L

Q: What about the AST (24 h) of the same molecule?
A: 67.8 IU/L

Q: And the BUN (24 h)?
A: 15.4 mg/dL

Q: And the CRE (24 h)?
A: 0.4 mg/dL

Q: And the Ca (24 h)?
A: 10.9 mg/dL

Q: What about the Cl (24 h) of the same molecule?
A: 102.2 meq/L

Q: And the DBIL (24 h)?
A: 0.09 mg/dL

Q: And the GLC (24 h)?
A: 200.8 mg/dL

Q: What about the IP (24 h) of the same molecule?
A: 7.4 mg/dL

Q: What about the K (24 h) of the same molecule?
A: 3.9 meq/L

Q: What about the LDH (24 h) of the same molecule?
A: 183.4 IU/L

Q: And the Na (24 h)?
A: 140.8 meq/L

Q: What about the PL (24 h) of the same molecule?
A: 159.8 mg/dL

Q: What about the RALB (24 h) of the same molecule?
A: 3.5 g/dL

Q: What about the TBIL (24 h) of the same molecule?
A: 0.2 mg/dL

Q: And the TC (24 h)?
A: 77.8 mg/dL

Q: And the TG (24 h)?
A: 94 mg/dL

Q: What about the TP (24 h) of the same molecule?
A: 5.6 g/dL

Q: What about the gamma-GTP (24 h) of the same molecule?
A: 1.6 IU/L
